ChEMBL document CHEMBL5465560, “Selectivity Literature for EUbOPEN Chemogenomic Library” (2024)

Experiments:
[1] = molecular target: Histone-lysine N-methyltransferase ASH1L (Homo sapiens) (UniProt Q9NR48); test: Selectivity interaction (Human bromodomain panel (DSF assay)) EUB0000233b ASH1L
[2] = molecular target: T1, Cyclin-dependent kinase 11A (Homo sapiens) (UniProt Q9UQ88); test: Selectivity interaction (KinomeScan (DiscoverX)) EUB0000229b CDK11A; conditions: at 10 µM
T1 sequence (whole entry): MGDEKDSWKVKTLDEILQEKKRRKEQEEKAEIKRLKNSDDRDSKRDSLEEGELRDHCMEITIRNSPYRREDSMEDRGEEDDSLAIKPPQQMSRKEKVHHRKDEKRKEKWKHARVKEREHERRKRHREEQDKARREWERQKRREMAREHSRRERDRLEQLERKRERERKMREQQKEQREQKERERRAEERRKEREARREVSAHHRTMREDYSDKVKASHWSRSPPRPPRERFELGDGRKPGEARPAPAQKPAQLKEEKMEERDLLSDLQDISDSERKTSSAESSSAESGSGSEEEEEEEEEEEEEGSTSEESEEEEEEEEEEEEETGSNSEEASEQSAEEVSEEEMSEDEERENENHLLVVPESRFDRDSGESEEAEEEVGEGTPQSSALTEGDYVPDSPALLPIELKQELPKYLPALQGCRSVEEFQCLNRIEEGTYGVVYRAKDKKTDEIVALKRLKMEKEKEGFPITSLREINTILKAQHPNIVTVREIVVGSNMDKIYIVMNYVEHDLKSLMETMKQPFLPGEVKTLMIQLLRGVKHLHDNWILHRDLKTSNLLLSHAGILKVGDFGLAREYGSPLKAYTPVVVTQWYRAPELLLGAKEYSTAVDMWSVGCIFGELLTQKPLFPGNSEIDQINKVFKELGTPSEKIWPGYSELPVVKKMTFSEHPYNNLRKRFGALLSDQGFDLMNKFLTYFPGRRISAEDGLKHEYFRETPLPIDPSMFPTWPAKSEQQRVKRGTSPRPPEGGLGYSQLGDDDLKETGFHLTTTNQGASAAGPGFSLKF

[3] = molecular target: Mitogen-activated protein kinase kinase kinase 4 (Homo sapiens) (UniProt Q9Y6R4); test: Selectivity interaction (KinomeScan (DiscoverX)) EUB0000229b MAP3K4; conditions: at 10 µM
[4] = molecular target: Ribosomal protein S6 kinase alpha-4 (Homo sapiens) (UniProt O75676); test: Selectivity interaction (KinomeScan (DiscoverX)) EUB0000045b RPS6KA4; conditions: at 10 µM
Chain of Ribosomal protein S6 kinase alpha-4 (Homo sapiens) (O75676 whole entry, looked up): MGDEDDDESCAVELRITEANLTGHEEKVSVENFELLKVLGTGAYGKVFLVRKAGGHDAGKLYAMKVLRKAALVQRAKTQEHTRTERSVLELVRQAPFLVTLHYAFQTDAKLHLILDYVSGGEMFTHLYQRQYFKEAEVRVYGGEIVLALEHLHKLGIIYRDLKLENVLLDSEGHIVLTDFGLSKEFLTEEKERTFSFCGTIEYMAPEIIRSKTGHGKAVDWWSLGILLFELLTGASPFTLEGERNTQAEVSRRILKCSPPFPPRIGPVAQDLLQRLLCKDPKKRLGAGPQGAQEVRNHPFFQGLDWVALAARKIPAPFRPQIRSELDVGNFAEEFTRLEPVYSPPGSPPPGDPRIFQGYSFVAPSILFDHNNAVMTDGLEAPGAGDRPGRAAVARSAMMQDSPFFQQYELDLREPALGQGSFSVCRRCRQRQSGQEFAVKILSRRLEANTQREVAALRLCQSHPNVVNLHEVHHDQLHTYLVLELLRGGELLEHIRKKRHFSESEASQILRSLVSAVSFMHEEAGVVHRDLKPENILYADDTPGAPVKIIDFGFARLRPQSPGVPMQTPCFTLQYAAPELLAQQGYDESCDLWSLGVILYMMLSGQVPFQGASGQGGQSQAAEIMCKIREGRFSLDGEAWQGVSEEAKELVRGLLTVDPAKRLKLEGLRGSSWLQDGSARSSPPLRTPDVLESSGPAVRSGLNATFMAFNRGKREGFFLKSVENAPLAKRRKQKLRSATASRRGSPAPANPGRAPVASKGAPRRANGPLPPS

[5] = molecular target: G protein-coupled receptor kinase 4 (Homo sapiens) (UniProt P32298); test: Selectivity interaction (Kinase panel (Z-LYTE Assay)) EUB0001632a GRK4; conditions: at 10 µM
[6] = molecular target: Polycomb protein SUZ12 (Homo sapiens) (UniProt Q15022); test: Selectivity interaction (Methyltransferase screen (radiometric assays, panel of 8 PRMTs, 21 protein lysine methyltransferases, 3 DNA methyltransferases, and one RNA methyltransferase)) EUB0000271b SUZ12
Chain of Polycomb protein SUZ12 (Homo sapiens) (Q15022 whole entry): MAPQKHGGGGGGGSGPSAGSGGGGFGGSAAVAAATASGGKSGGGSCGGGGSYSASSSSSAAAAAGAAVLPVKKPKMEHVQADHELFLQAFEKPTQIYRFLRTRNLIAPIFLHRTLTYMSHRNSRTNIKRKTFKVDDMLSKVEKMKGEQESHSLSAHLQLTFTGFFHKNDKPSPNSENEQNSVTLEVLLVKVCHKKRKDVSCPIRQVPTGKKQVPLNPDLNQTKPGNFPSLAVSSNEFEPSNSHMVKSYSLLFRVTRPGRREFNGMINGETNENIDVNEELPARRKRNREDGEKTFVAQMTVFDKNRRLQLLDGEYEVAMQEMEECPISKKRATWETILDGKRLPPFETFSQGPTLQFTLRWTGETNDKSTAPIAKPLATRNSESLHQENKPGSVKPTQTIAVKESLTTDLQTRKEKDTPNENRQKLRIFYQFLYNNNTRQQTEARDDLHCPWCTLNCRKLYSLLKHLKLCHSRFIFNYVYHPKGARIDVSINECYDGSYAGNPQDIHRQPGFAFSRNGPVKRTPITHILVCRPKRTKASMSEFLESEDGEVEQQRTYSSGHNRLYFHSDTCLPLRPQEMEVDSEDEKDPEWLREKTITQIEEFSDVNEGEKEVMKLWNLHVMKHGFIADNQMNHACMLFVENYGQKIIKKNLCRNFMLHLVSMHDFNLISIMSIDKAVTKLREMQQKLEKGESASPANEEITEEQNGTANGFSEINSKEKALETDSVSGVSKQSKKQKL

[7] = molecular target: Mitogen-activated protein kinase 8 (Homo sapiens, UniProt P45983); test: Selectivity interaction (Kinase screening (Upstate/Millipore)) EUB0000604a MAPK8
Chain of Mitogen-activated protein kinase 8 (P45983 whole entry): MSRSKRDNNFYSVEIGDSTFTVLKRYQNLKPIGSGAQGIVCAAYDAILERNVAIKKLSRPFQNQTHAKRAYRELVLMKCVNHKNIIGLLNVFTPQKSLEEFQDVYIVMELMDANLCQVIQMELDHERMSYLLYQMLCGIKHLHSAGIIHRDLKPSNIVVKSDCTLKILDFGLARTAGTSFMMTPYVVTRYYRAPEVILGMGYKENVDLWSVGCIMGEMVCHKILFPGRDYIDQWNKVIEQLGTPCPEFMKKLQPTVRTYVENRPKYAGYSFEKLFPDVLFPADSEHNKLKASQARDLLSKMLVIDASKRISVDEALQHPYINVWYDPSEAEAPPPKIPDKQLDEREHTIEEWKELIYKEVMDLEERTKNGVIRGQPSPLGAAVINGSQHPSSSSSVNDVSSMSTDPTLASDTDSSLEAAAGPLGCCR

[8] = molecular target: Casein kinase II subunit alpha' (Homo sapiens) (UniProt P19784); test: Selectivity interaction (KinomeScan (DiscoverX)) EUB0001049a CSNK2A2; conditions: at 1 µM
[9] = molecular target: T2, Serine/threonine-protein kinase NLK (Homo sapiens) (UniProt Q9UBE8); test: Selectivity interaction (KinomeScan (DiscoverX)) EUB0001049a NLK; conditions: at 1 µM
T2 sequence (whole entry): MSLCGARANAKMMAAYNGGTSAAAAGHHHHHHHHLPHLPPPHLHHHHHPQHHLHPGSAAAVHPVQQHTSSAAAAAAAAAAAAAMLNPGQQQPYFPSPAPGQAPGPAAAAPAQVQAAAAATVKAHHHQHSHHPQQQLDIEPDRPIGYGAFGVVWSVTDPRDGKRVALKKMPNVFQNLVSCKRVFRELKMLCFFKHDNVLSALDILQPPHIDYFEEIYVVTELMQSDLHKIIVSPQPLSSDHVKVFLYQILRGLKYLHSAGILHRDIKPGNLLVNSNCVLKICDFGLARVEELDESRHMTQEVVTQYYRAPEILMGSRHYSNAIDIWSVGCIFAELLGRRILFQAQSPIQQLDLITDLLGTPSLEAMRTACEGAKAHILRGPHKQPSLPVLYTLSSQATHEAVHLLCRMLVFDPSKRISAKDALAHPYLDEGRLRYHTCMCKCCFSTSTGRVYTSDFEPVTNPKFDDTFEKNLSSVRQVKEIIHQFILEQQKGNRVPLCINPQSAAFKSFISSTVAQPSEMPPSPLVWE

[10] = molecular target: Cyclin-dependent kinase 7 (Homo sapiens, UniProt P50613); test: Selectivity interaction (KinomeScan (DiscoverX)) EUB0001550a CDK7; conditions: at 1 µM
Chain of Cyclin-dependent kinase 7 (P50613 whole entry): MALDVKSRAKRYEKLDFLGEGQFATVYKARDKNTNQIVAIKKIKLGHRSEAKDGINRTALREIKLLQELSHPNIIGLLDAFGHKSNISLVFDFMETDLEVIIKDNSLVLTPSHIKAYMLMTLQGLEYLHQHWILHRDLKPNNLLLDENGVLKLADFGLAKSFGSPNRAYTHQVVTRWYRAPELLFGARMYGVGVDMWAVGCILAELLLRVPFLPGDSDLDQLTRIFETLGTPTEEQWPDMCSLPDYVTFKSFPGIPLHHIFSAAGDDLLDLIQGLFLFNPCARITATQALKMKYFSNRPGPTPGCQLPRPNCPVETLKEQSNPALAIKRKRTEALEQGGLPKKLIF

[11] = molecular target: Ephrin type-A receptor 7 (Homo sapiens) (UniProt Q15375); test: Selectivity interaction (Upstate Kinase Profiler service (Millipore)) EUB0000056c EPHA7; conditions: at 1 µM
[12] = molecular target: Casein kinase I isoform gamma-1 (Homo sapiens) (UniProt Q9HCP0); test: Selectivity interaction (ProQinase) EUB0000171b CSNK1G1
Chain of Casein kinase I isoform gamma-1 (Homo sapiens) (Q9HCP0 whole entry, looked up, canonical isoform): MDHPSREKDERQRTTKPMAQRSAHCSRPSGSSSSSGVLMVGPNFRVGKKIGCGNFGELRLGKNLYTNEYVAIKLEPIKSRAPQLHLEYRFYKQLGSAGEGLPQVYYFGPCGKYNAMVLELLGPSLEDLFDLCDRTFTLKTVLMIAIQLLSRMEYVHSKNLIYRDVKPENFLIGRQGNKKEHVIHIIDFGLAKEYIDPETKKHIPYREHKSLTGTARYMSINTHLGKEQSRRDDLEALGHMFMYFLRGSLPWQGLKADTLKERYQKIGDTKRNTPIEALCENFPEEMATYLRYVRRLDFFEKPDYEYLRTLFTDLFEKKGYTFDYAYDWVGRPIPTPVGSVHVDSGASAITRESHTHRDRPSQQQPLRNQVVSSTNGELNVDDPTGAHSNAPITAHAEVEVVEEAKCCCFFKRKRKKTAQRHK

[13] = molecular target: Tyrosine-protein kinase JAK1 (Homo sapiens, UniProt P23458); test: Selectivity interaction (Kinase panel (Carna Biosciences)) EUB0001542aTs JAK1; conditions: at 1 µM
Chain of Tyrosine-protein kinase JAK1 (P23458 whole entry): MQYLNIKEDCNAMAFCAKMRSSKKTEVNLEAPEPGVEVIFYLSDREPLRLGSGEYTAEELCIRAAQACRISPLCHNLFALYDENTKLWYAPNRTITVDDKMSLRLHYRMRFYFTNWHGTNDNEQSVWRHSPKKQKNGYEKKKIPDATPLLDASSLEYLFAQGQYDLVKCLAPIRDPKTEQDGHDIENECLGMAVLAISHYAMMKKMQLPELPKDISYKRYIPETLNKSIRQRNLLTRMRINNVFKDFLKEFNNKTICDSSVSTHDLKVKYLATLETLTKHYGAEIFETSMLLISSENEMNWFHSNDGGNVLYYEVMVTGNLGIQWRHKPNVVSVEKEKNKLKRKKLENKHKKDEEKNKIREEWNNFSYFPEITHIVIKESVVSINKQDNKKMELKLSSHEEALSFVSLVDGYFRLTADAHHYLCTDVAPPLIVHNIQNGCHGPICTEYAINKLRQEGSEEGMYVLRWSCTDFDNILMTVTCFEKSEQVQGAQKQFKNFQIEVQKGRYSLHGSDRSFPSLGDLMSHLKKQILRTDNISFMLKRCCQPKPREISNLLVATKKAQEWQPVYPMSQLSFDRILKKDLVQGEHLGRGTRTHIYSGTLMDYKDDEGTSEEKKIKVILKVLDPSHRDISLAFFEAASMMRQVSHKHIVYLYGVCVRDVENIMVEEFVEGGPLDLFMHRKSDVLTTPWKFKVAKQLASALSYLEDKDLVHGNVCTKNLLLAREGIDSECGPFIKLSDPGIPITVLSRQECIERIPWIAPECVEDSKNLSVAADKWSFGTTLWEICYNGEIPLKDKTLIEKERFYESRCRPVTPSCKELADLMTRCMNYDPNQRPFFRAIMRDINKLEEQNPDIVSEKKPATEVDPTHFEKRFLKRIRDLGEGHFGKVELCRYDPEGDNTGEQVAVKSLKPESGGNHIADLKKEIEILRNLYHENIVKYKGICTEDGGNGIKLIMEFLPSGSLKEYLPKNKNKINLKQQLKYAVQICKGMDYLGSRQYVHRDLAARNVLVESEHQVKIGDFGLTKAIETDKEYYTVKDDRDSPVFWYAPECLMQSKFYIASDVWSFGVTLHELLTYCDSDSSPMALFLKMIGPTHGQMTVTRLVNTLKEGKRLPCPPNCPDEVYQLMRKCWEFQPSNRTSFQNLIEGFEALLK

[14] = molecular target: Cyclin-dependent kinase 15 (Homo sapiens) (UniProt Q96Q40); test: Selectivity interaction (KinomeScan (DiscoverX)) EUB0001619a CDK15; conditions: at 1 µM
Chain of Cyclin-dependent kinase 15 (Homo sapiens) (Q96Q40 whole entry): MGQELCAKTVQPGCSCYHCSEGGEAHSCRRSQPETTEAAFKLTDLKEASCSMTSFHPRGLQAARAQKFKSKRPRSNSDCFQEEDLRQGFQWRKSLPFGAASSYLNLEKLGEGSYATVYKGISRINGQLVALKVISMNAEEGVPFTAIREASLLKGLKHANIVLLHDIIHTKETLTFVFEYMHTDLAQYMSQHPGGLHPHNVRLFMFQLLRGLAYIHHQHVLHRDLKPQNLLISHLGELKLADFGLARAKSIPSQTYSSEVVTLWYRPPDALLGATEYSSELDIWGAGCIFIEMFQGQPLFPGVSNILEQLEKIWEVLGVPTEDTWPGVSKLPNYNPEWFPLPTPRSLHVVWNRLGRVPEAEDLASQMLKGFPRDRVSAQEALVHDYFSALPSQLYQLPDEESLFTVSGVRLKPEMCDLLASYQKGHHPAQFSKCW

[15] = molecular target: Histone-lysine N-methyltransferase ASH1L (Homo sapiens) (UniProt Q9NR48); test: Selectivity interaction (Methyltransferase screen (Scintillation proximity assays)) EUB0000255b ASH1L
[16] = molecular target: Platelet-derived growth factor receptor alpha (Homo sapiens, UniProt P16234); test: Selectivity interaction (KinomeScan (DiscoverX)) EUB0000618a PDGFRA; conditions: at 10 µM
[17] = molecular target: T3, Phosphorylase b kinase gamma catalytic chain, liver/testis isoform (Homo sapiens) (UniProt P15735); test: Selectivity interaction (Kinase panel (Invitrogen)) EUB0000639a PHKG2; conditions: at 200 nM
T3 sequence (whole entry): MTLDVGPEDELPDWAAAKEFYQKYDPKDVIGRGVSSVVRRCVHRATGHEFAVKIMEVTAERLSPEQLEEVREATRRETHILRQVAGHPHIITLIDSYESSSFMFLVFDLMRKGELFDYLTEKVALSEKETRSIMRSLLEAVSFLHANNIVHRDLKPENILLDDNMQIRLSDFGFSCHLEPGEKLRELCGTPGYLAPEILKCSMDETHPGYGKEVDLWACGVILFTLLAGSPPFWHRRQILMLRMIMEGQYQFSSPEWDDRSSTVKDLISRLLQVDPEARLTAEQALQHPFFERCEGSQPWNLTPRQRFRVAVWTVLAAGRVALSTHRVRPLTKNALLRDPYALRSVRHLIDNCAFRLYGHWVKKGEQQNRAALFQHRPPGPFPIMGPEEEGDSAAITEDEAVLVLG

[18] = molecular target: RAF proto-oncogene serine/threonine-protein kinase (Homo sapiens) (UniProt P04049); conditions: at 10 µM
Chain of RAF proto-oncogene serine/threonine-protein kinase (Homo sapiens) (P04049 whole entry): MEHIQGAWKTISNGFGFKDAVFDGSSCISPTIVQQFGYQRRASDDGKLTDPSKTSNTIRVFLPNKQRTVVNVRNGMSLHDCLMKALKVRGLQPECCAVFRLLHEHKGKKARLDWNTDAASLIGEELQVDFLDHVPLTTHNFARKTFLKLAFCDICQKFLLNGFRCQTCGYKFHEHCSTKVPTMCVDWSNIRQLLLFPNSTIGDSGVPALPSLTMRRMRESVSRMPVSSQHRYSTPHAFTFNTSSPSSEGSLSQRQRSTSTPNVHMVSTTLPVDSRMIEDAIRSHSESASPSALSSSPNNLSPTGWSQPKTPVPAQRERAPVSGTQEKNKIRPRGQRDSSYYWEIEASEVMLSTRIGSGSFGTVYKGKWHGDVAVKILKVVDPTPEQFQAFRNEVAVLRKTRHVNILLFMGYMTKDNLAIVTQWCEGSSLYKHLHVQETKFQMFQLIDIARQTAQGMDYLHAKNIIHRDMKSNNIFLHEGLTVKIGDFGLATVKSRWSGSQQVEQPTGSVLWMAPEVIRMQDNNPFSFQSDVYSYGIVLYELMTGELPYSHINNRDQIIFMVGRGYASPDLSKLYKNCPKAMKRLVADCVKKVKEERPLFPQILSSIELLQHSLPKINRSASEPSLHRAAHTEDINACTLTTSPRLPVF

`CN(C)CCCOc1ccc(-c2cc(NCCCn3cccn3)nc(S(C)(=O)=O)n2)cc1` showed a dTM [1] of under 2 K.

Work on `COc1cc(N(C)c2ccnc3ccc(C(F)(F)F)cc23)cc(OC)c1OC` yielded a % binding [2] of 97% and a % binding [3] of 100%.

In the case of `C=CC(=O)Nc1cc(-n2c(=O)ccc3cnc4ccc(-c5ccc(NS(C)(=O)=O)cc5)cc4c32)ccc1C`, the % of control [4] is reported as 81%.

`Cn1cc(-n2cnc3c(NCc4nc5cc(Cl)c(Cl)cc5[nH]4)nc(N4CCOCC4)nc32)cn1` was tested, and the % of control [5] was 0.672%.

With `Cc1cc(C)cc([C@@H]2c3cc(C)ccc3NC(=O)CN2C(=O)c2ccc(Br)s2)c1` the % of activity ([6]; at 1 µM) was 101% and the % of activity ([6]; at 10 µM) was 101%.

Molecule `Cc1cnc(Nc2ccc(F)cc2Cl)nc1-c1c[nH]c(C(=O)N[C@H](CO)c2cccc(Cl)c2)c1` has a % of inhibition [7] of 34%.

For `COc1cc(Nc2nc(C)cc(-c3cnn4nc(OC)ccc34)n2)cc(C(F)(F)F)c1`, the % of control [8] was 59% and the % of control [9] was 100%.

In the case of `CN(C)CC#Cc1ccc2[nH]c3c(c2c1)-c1nc(N)ncc1CCC3`, the % of control [10] is reported as 20%.

Molecule `Cc1ccc(-c2ccc3c(ccc4sc5c(c43)NC[C@@H](C)NC5=O)n2)cn1` has a % of inhibition [11] of -5%.

Molecule `C=CC(=O)Nc1cccc(C(=O)Nc2ccc(Nc3cc(-c4[nH]c(SC)nc4C)ccn3)cc2)c1` has a % of control ([12]; at 1 µM) of 65% and a % of control ([12]; at 5 µM) of 31%.

In the case of `Cn1cc(Nc2nccc(N3CC4CCC(C3)N4C(=O)[C@@H]3CC3(F)F)n2)cn1`, the % of inhibition [13] is reported as 101%.

Molecule `N#Cc1cccc(-c2c[nH]c3ncnc(N4CCOCC4)c23)c1` has a % of control [14] of 100%.

For `COCCN1CCC(c2cc(CN(C)C(=O)c3cccc(Oc4ccccc4)c3)ccn2)CC1`, the % activity ([15]; at 1 µM) was over 95% and the % activity ([15]; at 10 µM) was over 90%.

With `O[C@H]1CC[C@H](Nc2ncc3nc(Nc4c(F)cc(F)cc4F)n([C@H]4CCOC4)c3n2)CC1` the % of control [16] was 82%.

Work on `CC[C@@H]1[C@H](F)C(=O)N[C@@H]1COc1nccc2cc(C(N)=O)c(OC)cc12` [ZIMLOVISERTIB] yielded a % of inhibition [17] of 24.7%.

With `CCN(CC)CCCCNc1ncc2cc(-c3cc(OC)cc(OC)c3)c(NC(=O)NC(C)(C)C)nc2n1` the % of control [18] was 100%.
